# Assay results from article PMC5872323, “The Plant Defensin NaD1 Enters the Cytoplasm of Candida albicans via Endocytosis” (Journal of Fungi, 2018).
# Where no end group is shown, it is not given here.
# What was measured:
# [1] = test system: C. albicans DAY185; assay: Confocal microscopy of BODIPY-NaD1 uptake after CCCP or latrunculin A pre-treatment (cell counts); type: cell-based, Candida albicans; details: 0 µM CCCP (no-inhibitor control), 10 µM BODIPY-NaD1 for 10 min, n = 4
# Procedure: C. albicans DAY185 overnight cultures were diluted in half-strength potato dextrose broth (PDB; Becton Dickinson, Scoresby, Australia) to an OD600 of 0.2 and grown for a further three hours (30 °C, 250 rpm). Cells were then diluted to an OD600 of 0.3 with half-strength PDB. For time course experiments, 300 µL aliquots (in 1.5 mL microcentrifuge tubes) were pre-treated with 5 µM propidium iodide (PI; Sigma, St Louis, MO, USA) for 10 min prior to addition of BODIPY- labelled NaD1. For CCCP and latrunculin A experiments, yeast cells were pre-treated with 50 µM CCCP (Sigma) or 100 µM latrunculin A (AdipoGen, Liestal, Switzerland) for 2 h (30 °C, 250 rpm) before addition of 5 µM PI. BODIPY-NaD1 (10 µM) was then added and cells were monitored using a Zeiss LSM510/ConfoCor confocal with images taken every 5 sec. BODIPY was excited at 488 nm (Argon laser) and emission was detected at 505 to 530 nm. PI was excited at 561 nm (DPSS laser) and fluorescence was monitored at 575 to 615 nm. Images were captured using Zen2009 (Zeiss, Oberkochen, Germany) software and analysed using FIJI (Bethesda, Rockville, MD, USA). Brightness and contrast for Figure 1, Figure 3 and Figure 4 were adjusted using the auto-brightness/contrast function of FIJI.
# Figure 3 NaD1 uptake is reduced after treatment with CCCP. […]
# [2] = test system: C. albicans DAY185; assay: Flow cytometry BODIPY-NaD1 uptake at 30 °C or 4 °C; type: cell-based, Candida albicans; details: 0, 5 or 10 µM BODIPY-NaD1, 30 min, half-strength PDB, three biological replicates
# Procedure: (§1) C. albicans DAY185 overnight cultures were diluted in half-strength potato dextrose broth (PDB) to an OD600 of 0.2 and grown for 3 h (30 °C, 250 rpm) before they were diluted again to an OD600 of 0.1 with half-strength PDB and used in cell death and NaD1 uptake assays. Cell death assays were conducted by treating 300 µL of C. albicans cells with 0, 5, 10 or 20 µM of native NaD1 or LL-37 and 5 µM PI. NaD1 uptake at 4 °C was measured by treating 300 µL of cells with 0, 5 or 10 µM BODIPY-labelled NaD1. All treatments were conducted for 30 min at either 30 °C or 4 °C without shaking and in the dark. […] For BODIPY-labelled NaD1, cells were excited at 488 nm and emission was detected using a 530/30 filter. For PI, cells were excited at 488 nm and emission was detected using a 670LP filter. Data were analysed using Weasel v3.0 (Walter and Eliza Hall Institute, Parkville, Australia).
# (§2) Figure 2 NaD1 induced cell death and uptake is reduced at 4 °C. […] PI (5 µM) was added for quantitation of cell death. Cells with PI fluorescence were counted using a flow cytometer to separate living and dead cells at both 30 °C (grey shading) and 4 °C (black line). Data is a representative example from three independent experiments; (Aii) The percentage of PI positive cells (percent cell death) relative to total cell counts was also calculated for three biological replicates and is shown in a bar graph. […]
# [3] = test system: C. albicans DAY185; assay: Flow cytometry cell death assay (PI positive cells) at 30 °C or 4 °C; type: cell-based, Candida albicans; details: 0, 5, 10 or 20 µM peptide, 5 µM PI, 30 min, half-strength PDB, three biological replicates
# Procedure: as §1, §2
# [4] = test system: C. albicans DAY185; assay: Fungal growth inhibition assay; type: cell-based, Candida albicans; details: half-strength PDB, 30 °C, 24 h, absorbance 595 nm, n = 3
# Procedure: (§3) Fungal growth inhibition assays were performed essentially as described in [30]. Overnight cultures of C. albicans cells were diluted to 5000 cells/mL with half-strength PDB. For growth inhibition assays in the presence of latrunculin A, 80 µL of diluted C. albicans DAY185 cells were added to 10 µL of latrunculin A and 10 µL of NaD1 in a 96 well microtiter plate (Greiner, Kremsmünster, Austria) to final concentrations of 2.5, 3, 4 and 4.5 µM NaD1 and 0 or 20 μM latrunculin A (AdipoGen). For brefeldin A and nocodazole assays, 80 µL of diluted C. albicans DAY185 cells was added to 10 µL of inhibitor and 10 µL of NaD1 in a microtiter plate. Brefeldin A (Sigma) and nocodazole where serially diluted (two-fold) down the plate with top final concentrations of 40 µM and 20 µM respectively. NaD1 was added to all wells at a final concentration of 2.5 µM. No-inhibitor controls were also included. For testing the antifungal activity of NaD1 against the C. albicans ESCRT mutants, 80 µL of diluted cells (DAY286 wild type and mutants) were added to 20 µL of NaD1 serially diluted from a top final concentration of 10 µM. All plates were incubated at 30 °C overnight without shaking. Growth of cells was monitored by measuring absorbance at 595 nm in a SpectraMAX M5e plate reader (Molecular Devices, San Jose, CA, USA). Measurements were taken at t = 0 and t = 24 h.
# [5] = test system: C. albicans DAY286 (WT); assay: Fungal growth inhibition assay, ESCRT wild type; type: cell-based, Candida albicans; details: half-strength PDB, 30 °C, 24 h, absorbance 595 nm, IC50 ± standard deviation, n = 4
# Text: (§4) All C. albicans strains were obtained from the fungal genetic stock centre and are described in [26, 27, 28]. Strains were derived from the BWP17 background strain (ura3::imm434/ura3::imm434 iro1/iro1::imm434 his1::hisG/his1::hisG arg4/arg4). The DAY185 wild-type C. albicans strain (ARG4+, URA3+, HIS1+) was used in most assays. For testing of C. albicans ESCRT mutants, DAY286 (ARG4+, URA3+, his1-) was used as the wild-type strain. C. albicans ESCRT (ARG4+, URA3+, his1-) mutants were produced by transposon insertion. Strains were grown in yeast extract-peptone dextrose (YPD) at 30 °C with shaking (250 rpm). For C. albicans mutant strains, YPD was supplemented with 80 µg/mL uridine.
# Fungal growth inhibition assays were performed essentially as described in [30]. Overnight cultures of C. albicans cells were diluted to 5000 cells/mL with half-strength PDB. For growth inhibition assays in the presence of latrunculin A, 80 µL of diluted C. albicans DAY185 cells were added to 10 µL of latrunculin A and 10 µL of NaD1 in a 96 well microtiter plate (Greiner, Kremsmünster, Austria) to final concentrations of 2.5, 3, 4 and 4.5 µM NaD1 and 0 or 20 μM latrunculin A (AdipoGen). […] Growth of cells was monitored by measuring absorbance at 595 nm in a SpectraMAX M5e plate reader (Molecular Devices, San Jose, CA, USA). […]
# [6] = test system: C. albicans bro1Δ; assay: Fungal growth inhibition assay, ESCRT mutant; type: cell-based, Candida albicans; details: half-strength PDB, 30 °C, 24 h, absorbance 595 nm, IC50 ± standard deviation, n = 4
# Text: as §4, §3
# [7] = test system: C. albicans snf7Δ; assay: Fungal growth inhibition assay, ESCRT mutant; type: cell-based, Candida albicans; details: half-strength PDB, 30 °C, 24 h, absorbance 595 nm, IC50 ± standard deviation, n = 4
# Text: as §4, §3
# [8] = test system: C. albicans vps23Δ; assay: Fungal growth inhibition assay, ESCRT mutant; type: cell-based, Candida albicans; details: half-strength PDB, 30 °C, 24 h, absorbance 595 nm, IC50 ± standard deviation, n = 4
# Text: as §4, §3
# [9] = test system: C. albicans vps24Δ; assay: Fungal growth inhibition assay, ESCRT mutant; type: cell-based, Candida albicans; details: half-strength PDB, 30 °C, 24 h, absorbance 595 nm, IC50 ± standard deviation, n = 4
# Text: as §4, §3
# [10] = test system: C. albicans vps28Δ; assay: Fungal growth inhibition assay, ESCRT mutant; type: cell-based, Candida albicans; details: half-strength PDB, 30 °C, 24 h, absorbance 595 nm, IC50 ± standard deviation, n = 4
# Text: as §4, §3
# [11] = test system: C. albicans vps2Δ; assay: Fungal growth inhibition assay, ESCRT mutant; type: cell-based, Candida albicans; details: half-strength PDB, 30 °C, 24 h, absorbance 595 nm, IC50 ± standard deviation, n = 4
# Text: as §4, §3
# [12] = test system: C. albicans vps36Δ; assay: Fungal growth inhibition assay, ESCRT mutant; type: cell-based, Candida albicans; details: half-strength PDB, 30 °C, 24 h, absorbance 595 nm, IC50 ± standard deviation, n = 4
# Text: as §4, §3
# [13] = test system: C. albicans DAY185; details: growth inhibition of C. albicans DAY185, previously reported; cited from earlier work
Substance,"cells with BODIPY-labelled NaD1 accumulated on the cell surface, relative to total cell counts [1]",cells containing BODIPY-labelled NaD1 in the cytoplasm at 4 °C compared to 30 °C [2],cell death (PI positive cells) at 4 °C compared to 30 °C [3],growth of cells with NaD1 plus brefeldin A versus NaD1 only ([4]; 2.5 µM NaD1 with 20 µM brefeldin A),"growth inhibition by NaD1 in the presence of latrunculin A ([4]; 2.5 µM NaD1 with 20 µM latrunculin A, 5000 cells/mL)",growth of cells with NaD1 plus nocodazole versus NaD1 only ([4]; 2.5 µM NaD1 with 20 µM nocodazole),"protection of cells from NaD1 by latrunculin A ([4]; 4 µM NaD1 with 20 µM latrunculin A, 5000 cells/mL)",IC50 [5],IC50 [6],IC50 [7],IC50 [8],IC50 [9],IC50 [10],IC50 [11],IC50 [12],IC50 [13]
"BODIPY-NaD1: NaD1 fluorescently labelled with BODIPY-FL-EDA (RECKTESNTFPGICITKPPCRKACISEKFTDGHCSKILRRCLCTKPC; BODIPY-FL-EDA label; UniProt Q8GTM0 26-72, looked up)",about 21%,Fewer cells,–,–,–,–,–,–,–,–,–,–,–,–,–,–
"NaD1: plant defensin from ornamental tobacco, purified from the flowers of Nicotiana alata (RECKTESNTFPGICITKPPCRKACISEKFTDGHCSKILRRCLCTKPC; ends and bridges not checked; cysteine pairing not given here; UniProt Q8GTM0 26-72, looked up)",–,–,less cell death,No significant difference,reduced,No significant difference,did not protect,1.8 ± 0.49 µM,2.1 ± 0.35 µM,1.9 ± 0.45 µM,1.8 ± 0.43 µM,2.1 ± 0.33 µM,1.6 ± 0.33 µM,1.8 ± 0.4 µM,1.7 ± 0.28 µM,2.3 ± 0.6 µM
